Assay [1] has as its system GUMC-403. In words: viability at highest tested concentration (max response) relative to DMSO (% of DMSO control); higher = less cytotoxic. As to conditions: library / dose series: MIPE library, 11-point 1:3 dilution, 48 h. In outline:
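In 1536-well plates, 700 GUMC-403 papilloma cells per well, taken from a patient and grown by conditional reprogramming, were seeded in 5 μL F + Y medium and incubated overnight at 37 °C. Compounds were pinned in at 23 nL in an 11-point 1:3 series, and left for 48 h before CellTiter-Glo luminescence was read on a ViewLux against vehicle (100%) and empty (0%) wells. Reported values are viability at the highest tested concentration relative to vehicle control.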

The test system of assay [2] is GUMC-403. In words: AC50 for reduction of cell viability; higher = less potent. To be noted: 48 h.
The mark [3] stands for this setting: library / dose series: MIPE library, 11-point 1:3 dilution.

These results are taken from the supplement of paper PMC6723410.

As for `CCN(CC)C(=S)SSC(=S)N(CC)CC`, the viability with GUMC-403 [1] (top concentration 46.1 µM) turned out to be 58.9. Besides, the “AC50 for reduction of cell viability” value in the assay with GUMC-403 [2] (library / dose series: NPC library, 8-point 1:5 dilution) amounted to 24.8 µM.

With `COC(=O)CCC1=C(C)C2=CC3=NC(=CC4=C(C)C(=C([NH]4)C=C\5N=C(C=C1[NH]2)\C(=C5C)CCC(O)=O)C=C)\C6=C\C=C(/[C@@H](C(=O)OC)[C@@]36C)C(=O)OC`, the viability in the assay on GUMC-403 [1] (top concentration 46.1 µM) worked out at 32.5. Also, the “AC50 for reduction of cell viability” value with GUMC-403 [2] (setting [3]) turned out to be 0.662 µM.

In turn, `CC(=O)NCC(=O)N1[C@@H]2CC[C@H]1c1ccc(Nc3ncc(C(F)(F)F)c(NC4CCC4)n3)cc12` had a viability in the assay on GUMC-403 [1] (top concentration 46.1 µM) of 4.61. Besides, in the assay on GUMC-403 [2] (setting [3]), the “AC50 for reduction of cell viability” value is 18.7 µM.

`CC1=C2N=C([NH]C2=CC(=C1)N3CCOCC3)\C4=C(NC[C@@H](O)C5=CC=CC(=C5)Cl)\C=C/NC4=O` showed a viability in the assay on GUMC-403 [1] (top concentration 46.1 µM) of 13.8. The “AC50 for reduction of cell viability” value in the assay with GUMC-403 [2] (setting [3]) was 0.235 µM.

In the assay with GUMC-403 [1] (top concentration 46.1 µM), `NC(=O)Nc1cc(-c2cccc(F)c2)sc1C(=O)N[C@H]1CCCNC1` came in with a viability of 12.8. Further, in the assay with GUMC-403 [2] (setting [3]), the “AC50 for reduction of cell viability” value stood at 16.6 µM.

In the assay with GUMC-403 [1] (top concentration 46.1 µM), `CC[C@@]1(O)C(=O)OC\C2=C1\C=C\3N(CC4=C3N=C5C=CC=CC5=C4)C2=O` displayed a viability of 32.3. Further, in the assay with GUMC-403 [2] (setting [3]), the “AC50 for reduction of cell viability” value was 16.6 µM.

Regarding `O=C1c2c(O)ccc(O)c2C(=O)c2c(NCCNCCO)ccc(NCCNCCO)c21`, the viability with GUMC-403 [1] (top concentration 46.1 µM) was 12.4. The “AC50 for reduction of cell viability” value in the assay on GUMC-403 [2] (setting [3]) was found to be 7.43 µM.

`Cc1cc(Nc2cc(NC(=O)c3c(Cl)cccc3Cl)ccn2)nc(N)n1` yielded a viability with GUMC-403 [1] (top concentration 46.1 µM) of 13. The “AC50 for reduction of cell viability” value in the assay on GUMC-403 [2] (setting [3]) was 20.9 µM.

`Nc1ncnc2c1c(-c1cnc3[nH]ccc3c1)nn2C1CCCC1` registered a viability in the assay on GUMC-403 [1] (top concentration 46.1 µM) of 7.41. For the same molecule, the “AC50 for reduction of cell viability” value in the assay on GUMC-403 [2] (setting [3]) was found to be 8.33 µM.

Regarding `O=C(Nc1c[nH]nc1-c1nc2cc(CN3CCOCC3)ccc2[nH]1)NC1CC1`, in the assay on GUMC-403 [1] (top concentration 46.1 µM), the viability turned out to be 8.38. The “AC50 for reduction of cell viability” value with GUMC-403 [2] (setting [3]) came out at 6.62 µM.

For `C1=C/COCc2cc(ccc2OCCN2CCCC2)Nc2nccc(n2)-c2cccc(c2)OCC/1`, the viability in the assay on GUMC-403 [1] (top concentration 46.1 µM) worked out at 76.3. In the assay on GUMC-403 [2] (setting [3]), the “AC50 for reduction of cell viability” value turned out to be 7.43 µM.

`CC1=C(/C=C/C(C)=C/C=C/C(C)=C/C(=O)Nc2ccc(O)cc2)C(C)(C)CCC1` displayed a viability in the assay on GUMC-403 [1] (top concentration 92.2 µM) of 4.3. In addition, the “AC50 for reduction of cell viability” value with GUMC-403 [2] (setting [3]) turned out to be 48.1 µM.

`CCOc1cc2ncc(C#N)c(Nc3ccc(OCc4ccccn4)c(Cl)c3)c2cc1NC(=O)/C=C/CN(C)C` displayed a viability in the assay on GUMC-403 [1] (top concentration 46.1 µM) of 54.2. Moreover, in the assay with GUMC-403 [2] (setting [3]), the “AC50 for reduction of cell viability” value was 0.0743 µM.

On to `Cc1nc(Nc2ncc(C(=O)Nc3c(C)cccc3Cl)s2)cc(N2CCN(CCO)CC2)n1`, for which the viability with GUMC-403 [1] (top concentration 46.1 µM) worked out at 58.6. Besides, the “AC50 for reduction of cell viability” value in the assay on GUMC-403 [2] (setting [3]) worked out at 0.209 µM.

In turn, `CO[C@H]1/C=C/O[C@@]2(C)Oc3c(C)c(O)c4c(O)c(c(/C=N\N5CCN(C6CCCC6)CC5)c(O)c4c3C2=O)NC(=O)/C(C)=C\C=C\[C@H](C)[C@H](O)[C@@H](C)[C@@H](O)[C@@H](C)[C@H](OC(C)=O)[C@@H]1C` gave a viability in the assay on GUMC-403 [1] (top concentration 46.1 µM) of 56. In addition, in the assay with GUMC-403 [2] (setting [3]), the “AC50 for reduction of cell viability” value came out at 0.296 µM.

In the assay on GUMC-403 [1] (top concentration 46.1 µM), `NC1(C(=O)N[C@@H](CCO)c2ccc(Cl)cc2)CCN(c2ncnc3[nH]ccc23)CC1` came in with a viability of 33.6. Also, in the assay with GUMC-403 [2] (setting [3]), the “AC50 for reduction of cell viability” value was 16.6 µM.

Take `C[C@H]1O[C@H](C[C@H](O)[C@@H]1O)O[C@H]2[C@@H](O)C[C@@H](O[C@@H]2C)O[C@H]3[C@@H](O)C[C@@H](O[C@@H]3C)O[C@H]4CC[C@@]5(C)[C@H](CC[C@@H]6[C@@H]5C[C@@H](O)[C@]7(C)[C@H](CC[C@]67O)C/8=C/C(=O)OC8)C4`: the viability in the assay with GUMC-403 [1] (top concentration 92.2 µM) was determined as 48.5. In addition, the “AC50 for reduction of cell viability” value in the assay with GUMC-403 [2] (setting [3]) stood at 0.191 µM.

On to `CN(C)CCCN1c2ccccc2CCc2ccc(Cl)cc21`, for which the viability in the assay on GUMC-403 [1] (top concentration 46.1 µM) was found to be 36. Also, the “AC50 for reduction of cell viability” value in the assay with GUMC-403 [2] (setting [3]) was 1.32 µM.

With `Cc1cc(Nc2ncc3c(n2)N(C)C(=O)N(c2cc(NC(=O)c4cccc(C(F)(F)F)c4)ccc2C)C3)n(C)n1`, the viability in the assay with GUMC-403 [1] (top concentration 46.1 µM) was 53.5. In addition, the “AC50 for reduction of cell viability” value in the assay with GUMC-403 [2] (setting [3]) worked out at 0.743 µM.

Molecule `COc1cc(Nc2c(C#N)cnc3cc(OCCCN4CCN(C)CC4)c(OC)cc23)c(Cl)cc1Cl` registered a viability in the assay with GUMC-403 [1] (top concentration 46.1 µM) of 74.7. Moreover, in the assay with GUMC-403 [2] (setting [3]), the “AC50 for reduction of cell viability” value came out at 2.35 µM.

In turn, `COc1cc(N2CCC(C(N)=O)CC2)ccc1Nc1nc(N)c(Cl)c(Nc2ccccc2[S+](=O)([O-])C(C)C)n1` gave a viability in the assay with GUMC-403 [1] (top concentration 46.1 µM) of 68.2. Also, the “AC50 for reduction of cell viability” value in the assay on GUMC-403 [2] (setting [3]) stood at 8.33 µM.

In the assay with GUMC-403 [1] (top concentration 46.1 µM), `CC(C)[C@H](C(=O)Nc1ccc(C(=O)NO)cc1)c1ccccc1` showed a viability of 11. The “AC50 for reduction of cell viability” value in the assay on GUMC-403 [2] (setting [3]) was 18.7 µM.

The molecule `CCCCN1CCC(CNC(=O)c2c3n(c4ccccc24)CCCO3)CC1` showed a viability in the assay on GUMC-403 [1] (top concentration 46.1 µM) of 23.8. For the same molecule, in the assay on GUMC-403 [2] (setting [3]), the “AC50 for reduction of cell viability” value stood at 16.6 µM.

In the assay with GUMC-403 [1] (top concentration 46.1 µM), `CCn1nnc2c(N3CCOCC3)nc(-c3ccc(NC(=O)Nc4ccc(C(=O)N5CCN(C)CC5)cc4)cc3)nc21` came in with a viability of 54.4. In the assay with GUMC-403 [2] (setting [3]), the “AC50 for reduction of cell viability” value was found to be 0.00935 µM.
